Reference: ChEMBL document CHEMBL5046296 (J Med Chem, 2022)
Converted amounts (≈) assume the structure as drawn. The source made the active and inactive calls. The rule behind the calls is not given here.

How the values were obtained:
[1] = Metabolic stability in rat liver microsomes assessed as half life; type: ADME, Microsome
[2] = Ratio of drug concentration in spinal cord to plasma of overnight fasted Sprague-Dawley rat model with streptozotocin induced diabetic peripheral neuropathic mechanical allodynia at 1 mg/kg, po measured at 5.5 hrs post dose; type: ADME, organism-based
Rattus norvegicus [3] = experiment: Analgesic activity in CCI induced thermal hyperalgesia in Sprague-Dawley rat assessed as reversal of thermal hyperalgesia by measuring reduction in paw withdrawal latency at 1 mg/kg, po measured after 5.5 hrs by Hargreaves test relative to control; type: functional; set-up: scale not given: the % may be the effect or the level left
[4] = Solubility of the compound in PEG400; type: physicochemical
[5] = Solubility of the compound in FaSSIF; type: physicochemical
[6] = Clearance in mouse at 2 mg/kg, iv; type: ADME, organism-based; conditions: in vivo
[7] = Cmax in Sprague-Dawley rat plasma with CCI induced thermal hyperalgesia at 0.3 mg/kg, po measured at 5.75 hrs post dose; type: ADME, organism-based; set-up: route oral, dose 0.3 mg/kg, time 5.75 hrs
[8] = AUC (infinity) in monkey at 3 mg/kg, po; type: ADME, organism-based, Macaca mulatta; set-up: route oral, time infinity, dose 3 mg/kg; conditions: rhesus monkey, in vivo
[9] = target: Serine/threonine-protein kinase LATS2 (Homo sapiens, UniProt Q9NRM7); experiment: Inhibition of LATS2 (unknown origin)
Chain of Serine/threonine-protein kinase LATS2 (Q9NRM7 whole entry): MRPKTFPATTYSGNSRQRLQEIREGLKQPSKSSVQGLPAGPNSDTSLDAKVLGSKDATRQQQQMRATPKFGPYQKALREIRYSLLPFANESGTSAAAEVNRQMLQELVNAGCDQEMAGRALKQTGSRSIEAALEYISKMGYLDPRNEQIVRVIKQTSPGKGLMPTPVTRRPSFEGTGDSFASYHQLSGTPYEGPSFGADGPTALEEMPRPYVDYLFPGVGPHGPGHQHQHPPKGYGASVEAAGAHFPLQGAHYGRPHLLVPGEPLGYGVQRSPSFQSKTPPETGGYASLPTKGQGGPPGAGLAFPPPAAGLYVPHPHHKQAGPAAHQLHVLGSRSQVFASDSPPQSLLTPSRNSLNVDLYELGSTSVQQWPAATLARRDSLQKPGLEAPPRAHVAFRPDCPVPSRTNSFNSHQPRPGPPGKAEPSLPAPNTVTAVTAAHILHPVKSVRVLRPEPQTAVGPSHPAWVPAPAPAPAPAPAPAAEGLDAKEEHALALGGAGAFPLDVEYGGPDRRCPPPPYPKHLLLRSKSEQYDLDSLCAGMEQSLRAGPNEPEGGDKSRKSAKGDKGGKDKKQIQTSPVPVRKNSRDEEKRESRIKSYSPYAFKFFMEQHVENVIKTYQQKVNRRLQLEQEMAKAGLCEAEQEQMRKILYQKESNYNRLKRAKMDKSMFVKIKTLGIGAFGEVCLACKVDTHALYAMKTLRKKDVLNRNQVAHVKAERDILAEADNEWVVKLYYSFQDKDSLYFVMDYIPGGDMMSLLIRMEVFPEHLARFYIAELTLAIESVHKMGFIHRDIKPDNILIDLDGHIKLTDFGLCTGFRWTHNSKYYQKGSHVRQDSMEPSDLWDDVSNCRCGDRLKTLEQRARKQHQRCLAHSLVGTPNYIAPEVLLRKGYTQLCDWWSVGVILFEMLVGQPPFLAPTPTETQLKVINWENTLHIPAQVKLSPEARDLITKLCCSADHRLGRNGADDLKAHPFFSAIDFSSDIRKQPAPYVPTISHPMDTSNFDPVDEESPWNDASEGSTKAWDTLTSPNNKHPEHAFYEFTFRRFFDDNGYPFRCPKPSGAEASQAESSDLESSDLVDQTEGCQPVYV

Rattus norvegicus [10] = experiment: Analgesic activity in streptozotocin induced diabetic peripheral neuropathic mechanical allodynia in overnight fasted Sprague-Dawley rat model assessed as reduction in pain response at 3 mg/kg, po measured after 5.5 hrs post treatment; type: functional; set-up: scale not given: the % may be the effect or the level left
Cytochrome P450 = Cytochrome P450 (Homo sapiens, UniProt P04798+P05177+P05181+P08684+P10632+P10635+P11509+P11712+P13584+P20813+P20815+P20853+P24462+P24903+P33260+P33261+P51589+P78329+P98187+Q02928+Q08477+Q16678+Q16696+Q5TCH4+Q6VVX0+Q7Z449+Q8TAV3+Q96SQ9+Q9HB55); experiment: Metabolic stability in human liver microsomes assessed as CYP450-mediated metabolism by measuring parent compound remaining at 0.5 uM incubated for 10 mins in presence of NADPH by LC-MS/MS analysis; type: ADME; conditions: read-out: Stability
[11] = MRT in monkey at 2 mg/kg, iv; type: ADME, organism-based, Macaca mulatta; conditions: rhesus monkey, in vivo
[12] = target: Broad substrate specificity ATP-binding cassette transporter ABCG2 (Homo sapiens, UniProt Q9UNQ0); experiment: Inhibition of BCRP (unknown origin)
[13] = Drug concentration in overnight fasted Sprague-Dawley rat spinal cord with streptozotocin induced diabetic peripheral neuropathic mechanical allodynia at 0.1 mg/kg, po measured at 5.5 hrs post dose; type: ADME, organism-based; conditions: read-out: Ct
[14] = Protein binding in rat plasma assessed as unbound fraction at 10 uM measured after 5 hrs by LC-MS/MS analysis; type: ADME, cell-free
[15] = Clearance in dog at 2 mg/kg, iv; type: ADME, organism-based, Canis lupus familiaris; conditions: in vivo
[16] = Cmax in naive Sprague-Dawley rat plasma at 30 mg/kg, po measured at 5.25 hrs post dose; type: ADME, organism-based; set-up: route oral, time 5.25 hrs, dose 30 mg/kg
[17] = Solubility of the compound in FeSSIF; type: physicochemical
[18] = Cmax in naive Sprague-Dawley rat plasma at 10 mg/kg, po measured at 5.25 hrs post dose; type: ADME, organism-based; set-up: route oral, dose 10 mg/kg, time 5.25 hrs
[19] = Metabolic stability in cynomolgus monkey liver microsomes assessed as half life; type: ADME, Macaca fascicularis, Microsome
[20] = target: Organic anion transporter 3 (Homo sapiens, UniProt Q8TCC7); experiment: Inhibition of OAT3 (unknown origin)
Chain of Organic anion transporter 3 (Q8TCC7 whole entry): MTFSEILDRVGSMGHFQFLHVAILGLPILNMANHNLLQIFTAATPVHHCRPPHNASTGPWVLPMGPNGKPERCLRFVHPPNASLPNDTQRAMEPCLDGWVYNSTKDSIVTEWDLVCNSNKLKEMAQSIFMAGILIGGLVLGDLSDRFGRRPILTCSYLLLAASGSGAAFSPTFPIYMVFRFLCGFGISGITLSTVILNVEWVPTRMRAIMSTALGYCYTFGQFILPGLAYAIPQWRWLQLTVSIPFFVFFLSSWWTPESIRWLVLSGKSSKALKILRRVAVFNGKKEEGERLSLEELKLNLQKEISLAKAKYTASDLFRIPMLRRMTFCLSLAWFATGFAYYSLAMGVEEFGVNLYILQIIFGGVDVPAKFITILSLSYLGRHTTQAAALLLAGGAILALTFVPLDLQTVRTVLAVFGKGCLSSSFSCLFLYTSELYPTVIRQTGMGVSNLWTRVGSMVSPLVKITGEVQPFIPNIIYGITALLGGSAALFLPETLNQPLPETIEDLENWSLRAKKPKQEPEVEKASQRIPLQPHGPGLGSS

[21] = target: MAP kinase-interacting serine/threonine-protein kinase 2 (Homo sapiens, UniProt Q9HBH9); experiment: Inhibition of MNK2 (unknown origin)
Chain of MAP kinase-interacting serine/threonine-protein kinase 2 (Q9HBH9 whole entry, looked up): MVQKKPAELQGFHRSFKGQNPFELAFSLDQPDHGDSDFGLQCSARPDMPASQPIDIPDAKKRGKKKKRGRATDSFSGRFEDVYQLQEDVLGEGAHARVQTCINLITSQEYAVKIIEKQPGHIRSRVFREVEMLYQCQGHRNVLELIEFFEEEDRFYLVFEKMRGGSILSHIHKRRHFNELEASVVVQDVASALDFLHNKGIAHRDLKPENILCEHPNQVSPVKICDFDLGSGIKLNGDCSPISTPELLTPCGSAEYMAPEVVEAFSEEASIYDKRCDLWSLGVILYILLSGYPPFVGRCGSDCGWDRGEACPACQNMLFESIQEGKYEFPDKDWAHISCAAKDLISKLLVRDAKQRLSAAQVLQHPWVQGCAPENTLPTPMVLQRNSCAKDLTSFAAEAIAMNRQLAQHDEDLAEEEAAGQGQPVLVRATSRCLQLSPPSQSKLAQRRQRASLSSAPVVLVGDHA

[22] = Solubility of the compound in acetate at pH 4.6 using crystalline form of sample; type: physicochemical
[23] = target: Cyclin-G-associated kinase (Homo sapiens, UniProt O14976); experiment: Inhibition of GAK (unknown origin)
Chain of Cyclin-G-associated kinase (O14976 whole entry): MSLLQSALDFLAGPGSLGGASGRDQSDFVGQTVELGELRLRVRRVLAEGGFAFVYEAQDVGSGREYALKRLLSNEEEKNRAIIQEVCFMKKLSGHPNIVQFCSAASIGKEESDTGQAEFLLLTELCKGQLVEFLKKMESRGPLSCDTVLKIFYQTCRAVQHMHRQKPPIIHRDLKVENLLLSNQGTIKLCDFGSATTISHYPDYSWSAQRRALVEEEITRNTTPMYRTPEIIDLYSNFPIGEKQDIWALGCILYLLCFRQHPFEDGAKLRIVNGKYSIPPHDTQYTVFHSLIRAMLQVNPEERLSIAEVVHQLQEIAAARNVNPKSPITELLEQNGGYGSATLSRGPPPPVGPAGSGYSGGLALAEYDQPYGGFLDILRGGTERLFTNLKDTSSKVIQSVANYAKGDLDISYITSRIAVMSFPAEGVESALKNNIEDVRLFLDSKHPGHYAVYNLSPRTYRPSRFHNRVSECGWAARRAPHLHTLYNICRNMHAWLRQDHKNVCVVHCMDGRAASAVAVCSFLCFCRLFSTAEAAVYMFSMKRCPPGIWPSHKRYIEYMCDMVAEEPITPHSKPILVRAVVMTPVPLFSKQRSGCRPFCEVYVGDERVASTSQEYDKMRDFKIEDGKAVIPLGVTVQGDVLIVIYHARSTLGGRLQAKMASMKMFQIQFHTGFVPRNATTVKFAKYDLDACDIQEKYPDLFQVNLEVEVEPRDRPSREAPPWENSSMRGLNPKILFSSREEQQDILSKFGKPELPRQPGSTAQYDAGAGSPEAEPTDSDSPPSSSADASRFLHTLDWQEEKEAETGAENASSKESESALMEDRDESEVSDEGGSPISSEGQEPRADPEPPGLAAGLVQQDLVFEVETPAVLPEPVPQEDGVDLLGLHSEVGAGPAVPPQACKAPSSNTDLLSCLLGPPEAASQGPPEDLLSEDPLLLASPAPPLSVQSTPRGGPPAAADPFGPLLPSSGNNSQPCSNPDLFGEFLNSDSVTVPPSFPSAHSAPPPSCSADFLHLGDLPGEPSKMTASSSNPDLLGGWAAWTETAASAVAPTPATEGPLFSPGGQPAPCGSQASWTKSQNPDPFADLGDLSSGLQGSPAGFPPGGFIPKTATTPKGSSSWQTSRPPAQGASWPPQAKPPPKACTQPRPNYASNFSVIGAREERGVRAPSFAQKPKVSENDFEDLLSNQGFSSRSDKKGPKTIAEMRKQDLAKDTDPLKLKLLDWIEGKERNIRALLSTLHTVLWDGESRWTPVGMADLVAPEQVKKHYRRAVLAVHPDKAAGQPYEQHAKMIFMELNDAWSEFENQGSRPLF

[24] = Clearance in rat at 2 mg/kg, iv; type: ADME, organism-based; conditions: in vivo
[25] = Drug concentration in naive Sprague-Dawley rat spinal cord at 3 mg/kg, po measured at 5.25 hrs post dose; type: ADME, organism-based; conditions: read-out: Ct
[26] = Apparent elimination half life in dog at 2 mg/kg, iv; type: ADME, organism-based, Canis lupus familiaris; conditions: in vivo, read-out: betat1/2(app) (converted)
[27] = Oral bioavailability in rat at 3 mg/kg; type: ADME, organism-based; conditions: in vivo
[28] = Drug concentration in naive Sprague-Dawley rat spinal cord at 30 mg/kg, po measured at 5.25 hrs post dose; type: ADME, organism-based; conditions: read-out: Ct
[29] = Drug uptake in Spinal cord of CCI induced thermal hyperalgesia Sprague-Dawley rat model assessed as spinal occupancy at 0.3 mg/kg, po measured at 5.75 hrs post dose in presence of [3H]BMT-046091; type: ADME, organism-based; conditions: in vivo
[30] = Cmax in rat at 3 mg/kg, po; type: ADME, organism-based; set-up: route oral, dose 3 mg/kg; conditions: in vivo
[31] = Tmax in monkey at 3 mg/kg, po; type: ADME, organism-based, Macaca mulatta; conditions: rhesus monkey, in vivo
[32] = Ratio of drug concentration in spinal cord to plasma in Sprague-Dawley rat at 3 mg/kg, po measured at 5.25 hrs post dose; type: ADME, organism-based
[33] = Drug uptake in Spinal cord of CCI induced thermal hyperalgesia Sprague-Dawley rat model assessed as spinal occupancy at 0.1 mg/kg, po measured at 5.75 hrs post dose in presence of [3H]BMT-046091; type: ADME, organism-based; conditions: in vivo
[34] = AUC (infinity) in dog at 2 mg/kg, iv; type: ADME, organism-based, Canis lupus familiaris; set-up: time infinity, route intravenous, dose 2 mg/kg; conditions: in vivo
[35] = Permeability across basolateral to apical side in human Caco-2 cells at 3 uM measured after 2 hrs by LC-MS/MS analysis; type: ADME, cell-based; conditions: read-out: permeability
[36] = Drug concentration in overnight fasted Sprague-Dawley rat spinal cord with streptozotocin induced diabetic peripheral neuropathic mechanical allodynia at 1 mg/kg, po measured at 5.5 hrs post dose; type: ADME, organism-based; conditions: read-out: Ct
Rattus norvegicus [37] = experiment: Analgesic activity in CCI induced thermal hyperalgesia in Sprague-Dawley rat assessed as reversal of thermal hyperalgesia by measuring reduction in paw withdrawal latency at 0.3 mg/kg, po measured after 5.5 hrs by Hargreaves test relative to control; type: functional; set-up: scale not given: the % may be the effect or the level left
[38] = Apparent elimination half life in mouse at 2 mg/kg, iv; type: ADME, organism-based; conditions: in vivo, read-out: betat1/2(app) (converted)
Cytochrome P450 2D6 = Cytochrome P450 2D6 (Homo sapiens, UniProt P10635); experiment: Inhibition of CYP2D6 (unknown origin); type: ADME
Chain of Cytochrome P450 2D6 (P10635 whole entry): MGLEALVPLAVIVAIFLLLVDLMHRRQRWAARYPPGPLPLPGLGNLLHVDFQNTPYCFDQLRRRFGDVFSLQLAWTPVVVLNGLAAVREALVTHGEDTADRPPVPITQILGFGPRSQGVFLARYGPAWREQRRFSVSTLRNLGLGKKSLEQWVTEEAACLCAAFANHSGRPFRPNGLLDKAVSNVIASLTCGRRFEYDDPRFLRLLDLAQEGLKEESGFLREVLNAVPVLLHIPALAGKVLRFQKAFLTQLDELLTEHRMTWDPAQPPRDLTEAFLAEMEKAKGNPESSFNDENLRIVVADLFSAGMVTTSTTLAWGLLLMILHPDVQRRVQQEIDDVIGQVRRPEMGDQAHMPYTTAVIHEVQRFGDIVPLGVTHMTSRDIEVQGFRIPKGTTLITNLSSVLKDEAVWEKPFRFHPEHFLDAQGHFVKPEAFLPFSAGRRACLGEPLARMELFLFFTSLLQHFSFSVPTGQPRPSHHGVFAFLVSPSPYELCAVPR

[39] = Oral bioavailability in mouse at 3 mg/kg; type: ADME, organism-based; conditions: in vivo
[40] = Ratio of drug concentration in spinal cord to plasma in CCI induced thermal hyperalgesia Sprague-Dawley rat model at 0.3 mg/kg, po measured at 5.75 hrs post dose; type: ADME, organism-based
Rattus norvegicus [41] = experiment: Analgesic activity in streptozotocin induced diabetic peripheral neuropathic mechanical allodynia in overnight fasted Sprague-Dawley rat model assessed as efficacy at 1 mg/kg, po measured at 5.5 hrs post dose; type: functional
[42] = Permeability of compound at pH 5.5 measured after 4 hrs by PAMPA assay; type: ADME; conditions: read-out: permeability
Rattus norvegicus [43] = experiment: Analgesic activity in CCI induced thermal hyperalgesia Sprague-Dawley rat model assessed as efficacy at 0.1 mg/kg, po measured at 5.75 hrs post dose; type: functional
[44] = target: Sodium-dependent noradrenaline transporter (Homo sapiens, UniProt P23975); experiment: Inhibition of NET (unknown origin); type: toxicity
Chain of Sodium-dependent noradrenaline transporter (P23975 whole entry): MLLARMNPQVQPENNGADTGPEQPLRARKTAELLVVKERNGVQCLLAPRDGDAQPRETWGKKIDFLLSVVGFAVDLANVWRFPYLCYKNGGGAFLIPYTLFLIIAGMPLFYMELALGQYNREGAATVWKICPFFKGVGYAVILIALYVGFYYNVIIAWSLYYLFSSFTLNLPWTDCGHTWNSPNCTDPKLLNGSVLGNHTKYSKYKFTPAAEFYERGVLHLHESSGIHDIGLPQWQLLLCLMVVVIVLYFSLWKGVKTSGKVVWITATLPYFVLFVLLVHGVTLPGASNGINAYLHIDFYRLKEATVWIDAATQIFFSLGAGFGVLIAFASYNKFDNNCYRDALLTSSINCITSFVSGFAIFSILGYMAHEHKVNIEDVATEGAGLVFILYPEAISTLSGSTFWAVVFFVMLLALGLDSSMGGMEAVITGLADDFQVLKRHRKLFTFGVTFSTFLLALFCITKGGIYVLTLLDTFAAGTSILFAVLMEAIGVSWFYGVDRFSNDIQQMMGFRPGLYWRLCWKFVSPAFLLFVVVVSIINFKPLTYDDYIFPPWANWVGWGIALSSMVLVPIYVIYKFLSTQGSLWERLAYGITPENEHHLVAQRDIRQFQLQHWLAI

Compound: CC(C)C[C@](C)(N)COc1ccc(-c2ccnc(C(F)F)c2)nc1C(F)F [PILAVAPADIN]
- half-life [1]: > 2 h
- Kp at 5.5 h [2]: 9
- Activity (Rattus norvegicus [3]): 97%
- solubility [4]: > 50000 µg/mL
- solubility [5]: 700 µg/mL (≈ 1820 µM)
- clearance [6]: 5 mL/min/kg
- Cmax [7]: 19 nM
- AUC(0-inf) [8]: 270 ng·h/mL
- IC50 [9]: 660 nM
- Activity (Rattus norvegicus [10]): 60%
- remaining at 10 min, 0.5 µM (Cytochrome P450): 87%
- MRT [11]: 8.5 h
- IC50 [12]: 5400 nM
- concentration at 5.5 h [13]: 75 nM
- fraction unbound at 5 h, 10 µM [14]: 0.1
- clearance [15]: 28.5 mL/min/kg
- Cmax [16]: 1650 nM
- solubility [17]: 840 µg/mL (≈ 2180 µM)
- Cmax [18]: 780 nM
- half-life [19]: 0.212 h
- IC50 [20]: > 30000 nM
- inhibition [21]: Active
- solubility thermodynamic [22]: > 10000 µg/mL
- IC50 [23]: 800 nM
- clearance [24]: 28.5 mL/min/kg
- concentration at 5.25 h [25]: 3860 nM
- half-life [26]: 4.8 h
- bioavailability [27]: 50%
- concentration at 5.25 h [28]: 32600 nM
- Occ [29]: 83%
- Cmax [30]: 60 ng/mL
- Tmax [31]: 4 h
- Kp at 5.25 h [32]: 19
- Occ [33]: 37%
- AUC(0-inf) [34]: 1210 ng·h/mL
- Papp B→A at 2 h, 3 µM [35]: 13.8 ×10⁻⁶ cm/s
- concentration at 5.5 h [36]: 852 nM
- Activity (Rattus norvegicus [37]): 25%
- half-life [38]: 44.2 h
- IC50 (Cytochrome P450 2D6): > 20000 nM
- bioavailability [39]: 100%
- Kp at 5.75 h [40]: 23
- Efficacy (Rattus norvegicus [41]): 60%
- Papp at 4 h [42]: 60 ×10⁻⁶ cm/s
- Efficacy (Rattus norvegicus [43]): 25%
- IC50 [44]: 390 nM
